Earlier results in publication PMC4460250, “Systems Pharmacology Dissecting Holistic Medicine for Treatment of Complex Diseases: An Example Using Cardiocerebrovascular Diseases Treated by TCM” (Evidence-based Complementary and Alternative Medicine : eCAM, 2015).

Settings: in vivo; cited from earlier work

| SMILES | HIA(Human Intestinal Absorption) |
| --- | --- |
| O=C(O)CCc1nc(-c2ccccc2)c(-c2ccccc2)o1 [Oxaprozin] | 0.98 |
| CN(C)[C@@H]1C(O)=C(C(N)=O)C(=O)[C@@]2(O)C(O)=C3C(=O)c4c(O)cccc4[C@@](C)(O)[C@H]3[C@H](O)[C@@H]12 [Oxytetracycline] | 0.58 |
| NCCC(O)(P(=O)(O)O)P(=O)(O)O [Pamidronic_acid] | 0.05 |
| CC(=O)Nc1ccc(O)cc1 [Paracetamol] | 0.8 |
| Fc1ccc([C@@H]2CCNC[C@H]2COc2ccc3c(c2)OCO3)cc1 [Paroxetine] | 1 |
| Cc1nc(=O)c(C#N)c(NCc2cccnc2)[nH]1 [Pelrinone] | 0.98 |
| CCC[C@H](N[C@@H](C)C(=O)N1[C@H](C(=O)O)C[C@@H]2CCCC[C@@H]21)C(=O)OCC [Perindopril] | 0.95 |
| Nc1ccc(/N=N/c2ccccc2)c(N)n1 [Phenazopyridine] | 0.9 |
| O=C1c2ccccc2C(=O)C1c1ccccc1 [Phenindione] | 1 |
| CCC1(c2ccccc2)C(=O)NC(=O)NC1=O [Phenobarbital] | 1 |
| O=C1NC(=O)C(c2ccccc2)(c2ccccc2)N1 [Phenytoin] | 0.9 |
| O=C(O)c1ccccc1C(=O)Nc1ccc(S(=O)(=O)Nc2nccs2)cc1 [Phthalylsulfathiazole] | 0.05 |
| NS(=O)(=O)c1cc(C(=O)O)cc(N2CCCC2)c1Oc1ccccc1 [Piretanide] | 0.85 |
| CN1C(C(=O)Nc2ccccn2)=C(O)c2ccccc2S1(=O)=O [Piroxicam] | 1 |
| CN1CCC(=C2c3ccccc3CCc3sccc32)CC1 [Pizotyline] | 0.8 |
| C[n+]1ccccc1/C=N/O [Pralidoxime] | 0.3 |
| CC[C@H](C)C(=O)O[C@H]1C[C@H](O)C=C2C=C[C@H](C)[C@H](CC[C@@H](O)C[C@@H](O)CC(=O)O)[C@H]21 [Pravastatin] | 0.34 |
| O=C(C1CCCCC1)N1CC(=O)N2CCc3ccccc3C2C1 (stereo not shown) [Praziquantel] | 1 |
| COc1cc2nc(N3CCN(C(=O)c4ccco4)CC3)nc(N)c2cc1OC [Prazosin] | 0.86 |
| CCC1(c2ccccc2)C(=O)NCNC1=O [Primidone] | 0.75 |

| SMILES | HIA(Human Intestinal Absorption) |
| --- | --- |
| CCCN(CCC)S(=O)(=O)c1ccc(C(=O)O)cc1 [Probenecid] | 1 |
| [H]/N=C(\N/C(=N/[H])Nc1ccc(Cl)cc1)NC(C)C [Proguanil] | 0.8 |
| CNCCCC1c2ccccc2C=Cc2ccccc21 [Protriptyline] | 0.95 |
| NC(=O)c1cnccn1 [Pyrazinamide] | 1 |
| OCCOCCN1CCN(C2=Nc3ccccc3Sc3ccccc32)CC1 [Quetiapine] | 0.73 |
| CCCN1CC(NS(=O)(=O)N(CC)CC)CC2Cc3c(O)cccc3CC21 (stereo not shown) [Quinagolide] | 1 |
| COCCCOc1ccnc(C[S+]([O-])c2nc3ccccc3[nH]2)c1C (stereo not shown) [Rabeprazole] | 0.9 |
| CNC(=C[N+](=O)[O-])NCCSCc1ccc(CN(C)C)o1 [Ranitidine] | 0.5 |
| Cc1cccc(C)c1NC(=O)NCCCNC(C)C [Recainam] | 0.71 |
| NC(=O)c1ncn([C@@H]2O[C@H](CO)[C@@H](O)[C@H]2O)n1 [Ribavirin] | 0.33 |
| CC(NCCc1ccc(O)cc1)C(O)c1ccc(O)cc1 (stereo not shown) [Ritodrine] | 0.95 |
| CN(C)CCc1c[nH]c2ccc(Cn3cncn3)cc12 [Rizatriptan] | 0.9 |
| O=C1NS(=O)(=O)c2ccccc21 [Saccharin] | 0.88 |
| O=C(Oc1ccccc1C(=O)O)c1ccccc1O [Salsalate] | 1 |
| O=c1[nH]c(=O)n([C@@H]2O[C@H](CO)[C@@H](O)[C@@H]2O)cc1/C=C/Br [Sorivudine] | 0.82 |
| C[C@@H]1CN(c2c(F)c(N)c3c(=O)c(C(=O)O)cn(C4CC4)c3c2F)C[C@H](C)N1 [Sparfloxacin] | 0.9 |
| CC(=O)S[C@@H]1CC2=CC(=O)CC[C@]2(C)[C@H]2CC[C@@]3(C)[C@@H](CC[C@@]34CCC(=O)O4)[C@H]12 [Spironolactone] | 0.73 |
| Cc1cn([C@H]2C=C[C@@H](CO)O2)c(=O)[nH]c1=O [Stavudine] | 1 |
| [H]/N=C(/N)N[C@H]1[C@H](O)[C@@H](O)[C@H](O[C@@H]2O[C@@H](C)[C@](O)(C=O)[C@H]2O[C@@H]2O[C@@H](CO)[C@H](O)[C@@H](O)[C@@H]2NC)[C@@H](N/C(N)=N\[H])[C@@H]1O [Streptomycin] | 0.01 |
| Cc1nnc(NS(=O)(=O)c2ccc(N)cc2)s1 [Sulfamethizole] | 0.85 |

| SMILES | HIA(Human Intestinal Absorption) |
| --- | --- |
| O=C(O)c1cc(/N=N/c2ccc(S(=O)(=O)Nc3ccccn3)cc2)ccc1O [Sulfasalazine] | 0.62 |
| O=C1C(CC[S+]([O-])c2ccccc2)C(=O)N(c2ccccc2)N1c1ccccc1 (stereo not shown) [Sulfinpyrazone] | 1 |
| Cc1cc(NS(=O)(=O)c2ccc(N)cc2)nc(C)n1 [Sulfisomidine] | 0.9 |
| Cc1noc(NS(=O)(=O)c2ccc(N)cc2)c1C [Sulfisoxazole] | 0.95 |
| CC1=C(CC(=O)O)c2cc(F)ccc2/C1=C\c1ccc([S+](C)[O-])cc1 (stereo not shown) [Sulindac] | 0.9 |
| O=C(O)c1cc(/N=N/c2ccc(S(=O)(=O)Nc3ccccn3)cc2)ccc1O [Sulphasalazine] | 0.59 |
| CNS(=O)(=O)Cc1ccc2[nH]cc(CCN(C)C)c2c1 [Sumatriptan] | 0.57 |
| Nc1c2c(nc3ccccc13)CCCC2 [Tacrine] | 0.95 |
| CCOc1ccccc1OCCN[C@H](C)Cc1ccc(OC)c(S(N)(=O)=O)c1 [Tamsulosin] | 1 |
| CC[C@H]1OC(=O)[C@H](C)C(=O)[C@H](C)[C@@H](O[C@@H]2O[C@H](C)C[C@H](N(C)C)[C@H]2O)[C@](C)(OC)C[C@@H](C)C(=O)[C@H](C)[C@H]2N(CCCCn3cnc(-c4cccnc4)c3)C(=O)O[C@]12C [Telithromycin] | 0.9 |
| CCCc1nc2c(C)cc(-c3nc4ccccc4n3C)cc2n1Cc1ccc(-c2ccccc2C(=O)O)cc1 [Telmisartan] | 0.9 |
| CN1C(C(=O)Nc2ccccn2)=C(O)c2sccc2S1(=O)=O [Tenoxicam] | 1 |
| CN(C/C=C/C#CC(C)(C)C)Cc1cccc2ccccc12 [Terbinafine] | 0.8 |
| COc1cc2c(cc1OC)C1CC(=O)C(CC(C)C)CN1CC2 (stereo not shown) [Tetrabenazine] | 1 |
| c1ccc2[nH]c(-c3cscn3)nc2c1 [Thiabendazole] | 0.9 |
| Cc1ccsc1C(=CCCN1CCC[C@@H](C(=O)O)C1)c1sccc1C [Tiagabine] | 0.9 |
| C#C[C@]1(O)CC[C@H]2[C@@H]3[C@H](C)CC4=C(CCC(=O)C4)[C@H]3CC[C@@]21C [Tibolone] | 0.9 |
| Clc1ccccc1CN1CCc2sccc2C1 [Ticlopidine] | 0.8 |
